The test system of assay [1] is Alternaria brassicae. As to the kind of experiment: In vivo test on Alternaria brassicae (leaf spot of crucifers). Particulars: Alternaria brassicae; dose 330 ppm; radish plants sprayed 24 hours before contamination; grading 6 to 7 days after contamination vs control plants; read-out: protection (good (at least 50%) to total). The protocol: In Vivo Test on Alternaria brassicae (Leaf Spot of crucifers)
(§1) The active ingredient tested is prepared by potter homogenisation in a concentrated suspension type formulation at 100 g/l. This suspension is then diluted with water to obtain the desired active material concentration.
Radish plants (Pernot variety) in starter cups, sown on a 50/50 peat soil-pozzolana substrate and grown at 18-20° C., are treated at the cotyledon stage by spraying with the aqueous suspension described above.
Plants, used as controls, are treated with an aqueous solution not containing the active material.
After 24 hours, the plants are contaminated by spraying them with an aqueous suspension of Alternaria brassicae spores (40,000 spores per cm^3). The spores are collected from a 12-13-day-old culture.
The contaminated radish plants are incubated for 6-7 days at about 18° C., under a humid atmosphere.
Grading is carried out 6 to 7 days after the contamination, in comparison with the control plants.

Assay [2] has as its system Pyrenophora teres. The assay is described as follows: In vivo test on Pyrenophora teres (barley net blotch). The settings on record: Pyrenophora teres, 288 h; dose 330 ppm; barley plants sprayed 24 hours before contamination; grading 12 days after contamination vs control plants; read-out: protection (good (at least 50%) to total). The protocol:
In Vivo Test on Pyrenophora teres (Barley Net Blotch)
as §1
Barley plants (Express variety) in starter cups, sown on a 50/50 peat soil-pozzolana substrate and grown at 12° C., are treated at the 1-leaf stage (10 cm tall) by spraying with the aqueous suspension described above. Plants, used as controls, are treated with an aqueous solution not containing the active material.
After 24 hours, the plants are contaminated by spraying them with an aqueous suspension of Pyrenophora teres spores (12,000 spores per ml). The spores are collected from a 12-day-old culture The contaminated barley plants are incubated for 24 hours at about 20° C. and at 100% relative humidity, and then for 12 days at 80% relative humidity.

In the case of `Cn1ccc(I)c1C(=O)NCCc1ncc(C(F)(F)F)cc1Cl` [Compound F-3], the pest or weed control at 330 ppm in assay [1] and in assay [2] was at least 50% throughout. In the case of `Cn1cc(C(=O)NCCc2ncc(C(F)(F)F)cc2Cl)c(C(F)(F)F)n1` [Compound J-54], in assay [2], the pest or weed control at 330 ppm was at least 50%.

In the case of `Cc1nn(C)c(F)c1C(=O)N(CCc1ncc(C(F)(F)F)cc1Cl)C1CC1` [Compound J-52], the pest or weed control at 330 ppm in assay [1] and in assay [2] was at least 50% each time. With `O=C(NCCc1ncc(C(F)(F)F)cc1Cl)c1cccnc1Oc1ccc(Cl)cc1` [Compound R-7], the pest or weed control at 330 ppm in assay [1] is at least 50%. Turning to `Cc1nc(CCNC(=O)c2cn(C)nc2C(F)(F)F)c(Cl)cc1Cl` [Compound J-25], the pest or weed control at 330 ppm in assay [1] and in assay [2] was at least 50% throughout. For the molecule `Cc1nn(-c2ccccc2)nc1C(=O)NCCc1ncc(C(F)(F)F)cc1Cl` [Compound O-1], the pest or weed control at 330 ppm in assay [1] is at least 50%.

`CC(C)ON=CCc1cnc(CCNC(=O)c2cn(C)nc2C(F)F)c(Cl)c1` [Compound J-38]: in assay [1], the pest or weed control at 330 ppm is at least 50%. Same read-out and setting: in the case of `Cc1nc(CCNC(=O)c2sccc2I)c(Cl)cc1Cl` [Compound C-21] it was at least 50%; in that of `O=C(NCCc1ncc(C(F)(F)F)cc1Cl)c1ncc(C(F)(F)F)cc1Cl` [Compound Q-1], at least 50%; in that of `O=C(NCCc1nc(Cl)ccc1Cl)c1sccc1I` [Compound C-18], at least 50%. As to `Cc1cc(C(=O)NCCc2ncc(C(F)(F)F)cc2Cl)cc(Cl)n1` [Compound S-2], the pest or weed control at 330 ppm in assay [1] and in assay [2] was at least 50% in each case. Consider `Cc1noc(C)c1C(=O)NCCc1ncc(C(F)(F)F)cc1Cl` [Compound M-2], for which the pest or weed control at 330 ppm in assay [1] was at least 50%. As for `COc1ccc(-n2ncc(C(=O)NCCc3ncc(C(F)(F)F)cc3Cl)c2C)cc1` [Compound J-8], in assay [2], the pest or weed control at 330 ppm is at least 50%. In the case of `Cn1cc(C(=O)NCCc2ccc(Cl)cn2)c(C(F)F)n1` [Compound J-36], the pest or weed control at 330 ppm in assay [1] and in assay [2] was at least 50% each time.

Turning to `Cc1nn(C)c(F)c1C(=O)NCCc1ncc(Cl)cc1F` [Compound J-49], the pest or weed control at 330 ppm in assay [1] and in assay [2] was at least 50% each time.

On to `O=C(NCCc1ncc(C(F)(F)F)cc1Cl)c1cnn(-c2ccccc2)c1C(F)(F)F` [Compound J-4], for which the pest or weed control at 330 ppm in assay [1] is at least 50%. `O=C(NCCc1nc(F)c(Cl)cc1Cl)c1sccc1I` [Compound C-22]: in assay [2], the pest or weed control at 330 ppm was at least 50%. As to `CCCc1c(C(=O)NCCc2ncc(C(F)(F)F)cc2Cl)cnn1-c1ccc(Cl)cc1` [Compound J-12], the pest or weed control at 330 ppm in assay [1] is at least 50%. Same read-out and setting: in the case of `O=C(NCCc1ncc(C(F)(F)F)cc1Cl)c1cc(-c2ccccc2)oc1C(F)(F)F` [Compound B-10] it was at least 50%. Still for that read-out and setting: with `O=C(NCCc1ncc(C(F)(F)F)cc1Cl)c1ccno1` [Compound N-1] the figure was at least 50%. `Cc1nnsc1C(=O)NCCc1ncc(C(F)(F)F)cc1Cl` [Compound P-1]: the pest or weed control at 330 ppm in assay [2] was at least 50%. `Cn1ncc(C(=O)NCCc2ncc(C(F)(F)F)cc2Cl)c1Cl` [Compound J-6]: the pest or weed control at 330 ppm in assay [1] is at least 50%.

With `O=C(NCCc1ncc(C(F)(F)F)cc1Cl)c1cc(-c2ccc(Cl)cc2)oc1C(F)(F)F` [Compound B-2], the pest or weed control at 330 ppm in assay [1] was at least 50%. As for `Cc1onc(-c2ccccc2Cl)c1C(=O)NCCc1ncc(C(F)(F)F)cc1Cl` [Compound M-4], the pest or weed control at 330 ppm in assay [1] and in assay [2] was at least 50% throughout. In the case of `O=C(NCCc1ncc(C(F)(F)F)cc1Cl)c1ccnc(Cl)c1` [Compound S-5], the pest or weed control at 330 ppm in assay [1] was at least 50%. As to `O=C(NCCc1ncc(C(F)(F)F)cc1Cl)c1nc(Cl)ccc1Cl` [Compound Q-2], the pest or weed control at 330 ppm in assay [1] is at least 50%. Regarding `Cn1cc(C(=O)NCCc2nc(F)c(Cl)cc2Cl)c(C(F)(F)F)n1` [Compound J-26], the pest or weed control at 330 ppm in assay [1] and in assay [2] was at least 50% each time.

`O=C(NCCc1ncc(C(F)(F)F)cc1Cl)c1cccnc1` [Compound R-5]: in assay [1], the pest or weed control at 330 ppm was at least 50%. The same measure, in the same setting: with `O=C(NCCc1ncc(C(F)(F)F)cc1Cl)c1cccnc1Sc1ccccc1` [Compound R-6] the figure was at least 50%. Regarding `O=C(NCCc1nc(F)c(Cl)cc1F)c1sccc1I` [Compound C-23], the pest or weed control at 330 ppm in assay [1] and in assay [2] was at least 50% in each case. Take `O=C(NCCc1ncc(C(F)(F)F)cc1Cl)c1ccoc1` [Compound B-3]: the pest or weed control at 330 ppm in assay [2] was at least 50%. `CCn1nc(C)c(Br)c1C(=O)NCCc1ncc(C(F)(F)F)cc1Cl` [Compound K-6]: the pest or weed control at 330 ppm in assay [1] and in assay [2] was at least 50% each time.

With `O=C(NCCc1ncc(C(F)(F)F)cc1Cl)c1cc(-c2cccc(Cl)c2)oc1C(F)(F)F` [Compound B-9], the pest or weed control at 330 ppm in assay [1] is at least 50%. Take `O=C(NCCc1ncc(C(F)(F)F)cc1Cl)c1sccc1Br` [Compound C-5]: the pest or weed control at 330 ppm in assay [1] and in assay [2] was at least 50% throughout.

In the case of `O=C(NCCc1ncc(C(F)(F)F)cc1Cl)c1ccnn1-c1ccccc1` [Compound K-5], the pest or weed control at 330 ppm in assay [1] is at least 50%. Consider `Cn1cc(C(=O)NCCc2ccc(C(F)(F)F)c(Cl)n2)c(C(F)(F)F)n1` [Compound J-24], for which the pest or weed control at 330 ppm in assay [1] and in assay [2] was at least 50% in each case. Consider `O=C(c1ccoc1I)N(CCc1ncc(C(F)(F)F)cc1Cl)C1CC1` [Compound B-15], for which the pest or weed control at 330 ppm in assay [2] is at least 50%. Turning to `Cc1ccoc1C(=O)NCCc1ncc(C(F)(F)F)cc1Cl` [Compound A-3], the pest or weed control at 330 ppm in assay [1] was at least 50%. Still for that read-out and setting: in the case of `O=C(NCCc1ncc(C(F)(F)F)cc1Cl)c1cnn(-c2ccc(Cl)cc2)c1C(F)(F)F` [Compound J-5] it was at least 50%. In the case of `Cc1nn(C)c(F)c1C(=O)NCCc1nc(Cl)c(Cl)cc1Cl` [Compound J-50], the pest or weed control at 330 ppm in assay [1] and in assay [2] was at least 50% throughout. As to `Cc1oc(-c2ccccc2)cc1C(=O)NCCc1ncc(C(F)(F)F)cc1Cl` [Compound B-5], the pest or weed control at 330 ppm in assay [1] is at least 50%.

For the molecule `CS(=O)(=O)c1csc(C(=O)NCCc2ncc(C(F)(F)F)cc2Cl)c1Cl` [Compound C-8], in assay [1], the pest or weed control at 330 ppm was at least 50%. For `Cc1cc(C(=O)NCCc2ncc(C(F)(F)F)cc2Cl)nn1C(C)(C)C` [Compound I-1], the pest or weed control at 330 ppm in assay [1] and in assay [2] was at least 50% each time. For `CC(C)(C)c1cc(C(=O)NCCc2ncc(C(F)(F)F)cc2Cl)n(Cc2ccccc2)n1` [Compound K-3], the pest or weed control at 330 ppm in assay [1] was at least 50%.

As to `O=C(NCCc1ccc(Cl)cn1)c1sccc1I` [Compound C-17], the pest or weed control at 330 ppm in assay [2] was at least 50%. Take `Cc1ccccc1-n1ncc(C(=O)NCCc2ncc(C(F)(F)F)cc2Cl)c1C` [Compound J-10]: the pest or weed control at 330 ppm in assay [2] was at least 50%.

In the case of `Cc1cc(C(=O)NCCc2nc(C)c(Cl)cc2Cl)c(C)o1` [Compound B-16], the pest or weed control at 330 ppm in assay [1] and in assay [2] was at least 50% each time. For the molecule `O=C(NCCc1ncc(C(F)(F)F)cc1Cl)c1ccc(-c2ccccn2)s1` [Compound C-6], in assay [1], the pest or weed control at 330 ppm is at least 50%. On to `O=C(NCCc1ncc(C(F)(F)F)cc1Cl)c1ncoc1-c1ccccc1` [Compound G-1], for which the pest or weed control at 330 ppm in assay [1] and in assay [2] was at least 50% throughout. Turning to `Cc1nc(C(F)(F)F)ccc1C(=O)NCCc1ncc(C(F)(F)F)cc1Cl` [Compound R-15], the pest or weed control at 330 ppm in assay [1] and in assay [2] was at least 50% in each case. Regarding `Cn1cc(C(=O)N(CCc2ncc(C(F)(F)F)cc2Cl)C2CC2)c(C(F)(F)F)n1` [Compound J-23], the pest or weed control at 330 ppm in assay [2] is at least 50%. On the same count and under the same terms, in the case of `O=C(c1sccc1I)N(CCc1ncc(C(F)(F)F)cc1Cl)C1CC1` [Compound C-20] it was at least 50%; in that of `Cc1c(C(=O)NCCc2ncc(C(F)(F)F)cc2Cl)cnn1-c1ccc(F)cc1` [Compound J-7], at least 50%. As for `O=C(NCCc1ncc(C(F)(F)F)cc1Cl)c1cnn(-c2ccc([N+](=O)[O-])cc2)c1C(F)(F)F` [Compound J-13], the pest or weed control at 330 ppm in assay [1] was at least 50%.

The values above are taken from US7754741B2, “Pyridine derivatives as fungicidal compounds” (Bayer Cropscience S.A., priority 2003, dated 2010).
